Reference: the supplement of paper PMC10307832

Assays:
Experiment in all cases: relative viability (nuclei count vs DMSO), 5 days (fraction); higher = more cells survive
[1] = compound: NCC(=O)Nc1ccc(-n2nc(C(F)(F)F)cc2-c2ccc3c(ccc4ccccc43)c2)cc1 + C[C@]1(O)C[C@@H](c2nc(-c3ccc4ccc(-c5ccccc5)nc4c3)c3c(N)nccn32)C1 [Linsitinib] (partner 1 µM)
Summary of the method: (§1)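 One day after seeding in 1536-well plates, lung cancer cell lines were dosed by pin tool. Dosing was either single-drug or a fixed anchor-drug dose plus five library-drug doses (not always all listed) in √10 steps. After 5 days, nuclei were stained in one fix-and-stain step and counted on 4× images, and relative viability is the nuclei count of treated wells over that of vehicle wells, given as the median of duplicate plates.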

[2] = compound: NCC(=O)Nc1ccc(-n2nc(C(F)(F)F)cc2-c2ccc3c(ccc4ccccc43)c2)cc1 + CCNC(=O)c1noc(-c2cc(C(C)C)c(O)cc2O)c1-c1ccc(CN2CCOCC2)cc1 [Luminespib] (partner 0.01 µM)
Summary of the method: as §1

[3] = compound: NCC(=O)Nc1ccc(-n2nc(C(F)(F)F)cc2-c2ccc3c(ccc4ccccc43)c2)cc1 + C[C@@H](Oc1cc(-c2cnn(C3CCNCC3)c2)cnc1N)c1c(Cl)ccc(F)c1Cl [Crizotinib] (partner 1 µM)
Summary of the method: as §1

[4] = compound: NCC(=O)Nc1ccc(-n2nc(C(F)(F)F)cc2-c2ccc3c(ccc4ccccc43)c2)cc1 + CS(=O)(=O)N1CCN(Cc2cc3nc(-c4cccc5[nH]ncc45)nc(N4CCOCC4)c3s2)CC1 [Pictilisib] (partner 1 µM)
Summary of the method: as §1

UMC-11
relative viability ([1]; first compound 0.02 µM): 0.995
relative viability ([1]; first compound 0.06325 µM): 1.03
relative viability ([1]; first compound 0.2 µM): 1.16
relative viability ([1]; first compound 0.6325 µM): 0.966
relative viability ([1]; first compound 2 µM): 0.918
relative viability ([2]; first compound 0.02 µM): 1.06
relative viability ([2]; first compound 0.06325 µM): 0.965
relative viability ([2]; first compound 0.2 µM): 1.05
relative viability ([2]; first compound 0.6325 µM): 0.948
relative viability ([2]; first compound 2 µM): 0.948
relative viability ([3]; first compound 0.02 µM): 0.728
relative viability ([3]; first compound 0.06325 µM): 0.638
relative viability ([3]; first compound 0.2 µM): 0.622
relative viability ([3]; first compound 0.6325 µM): 0.604
relative viability ([3]; first compound 2 µM): 0.567
relative viability ([4]; first compound 0.02 µM): 0.835
relative viability ([4]; first compound 0.06325 µM): 0.866
relative viability ([4]; first compound 0.2 µM): 0.858
relative viability ([4]; first compound 0.6325 µM): 0.732
relative viability ([4]; first compound 2 µM): 0.828
